These results are taken from ChEMBL document CHEMBL6120968, “Discovery of Thiadiazoleamide Derivatives as Potent, Selective, and Orally Available Antagonists Disrupting Androgen Receptor Homodimer” (J Med Chem, 2024).

Series [1] can be described thus: Microsomal stability in rat liver microsome assessed as parent compound remaining at 60 mins in presence of NADPH and UDPGA by HPLC-MS/MS analysis. The following applies: liver microsomes, read-out: Stability. The format is ADME. (Liver microsomes are vesicles of endoplasmic reticulum, rich in cytochrome P450 enzymes.)
Series [2] is described as follows: Observed apparent oral clearance in rat at 20 mg/kg, po by LC-MS/MS analysis. The following applies: in vivo. The format is ADME, organism-based.
Series [3] in a line: Toxicity in male CB17.SCID mouse implanted with human LNCaP cells assessed as body weight loss at 40 mg/kg, po measured upto 30 days. It counts as organism-based. The following applies: in vivo, 720 h, time < 30 day.
The nature of series [4]: Microsomal stability in rat liver microsome assessed as half life measured upto 60 mins in presence of NADPH and UDPGA by HPLC-MS/MS analysis. The format is ADME. As to conditions: liver microsomes.
Series [5] is described as follows: Microsomal stability in mouse liver microsome assessed as half life measured upto 60 mins in presence of NADPH and UDPGA by HPLC-MS/MS analysis. It counts as ADME. The following applies: liver microsomes.
Series [6] can be described thus: AUC (0 to infinity) in rat at 20 mg/kg, po by LC-MS/MS analysis. The format is ADME, organism-based. The following applies: in vivo.
Series [7] is described as follows: Microsomal stability in monkey liver microsome assessed as parent compound remaining at 60 mins in presence of NADPH and UDPGA by HPLC-MS/MS analysis. The format is ADME, Macaca mulatta. The following applies: rhesus monkey, liver microsomes, read-out: Stability.
Series [8] is described as follows: MRTlast in rat at 20 mg/kg, iv by LC-MS/MS analysis. The following applies: in vivo. It counts as ADME, organism-based.
The test system of another series is NIH3T3. Nature of the series: Antiproliferative activity against mouse 3T3 cells assessed as reduction in cell viability incubated for 3 days by MTT assay. As to conditions: nih3t3, 72 h, time 3 day. The format is toxicity, cell-based. In general terms: Tetrazolium assays rely on reduction of a dye to a coloured formazan, in cell work by metabolically active cells.

A short description of series [9]: Microsomal stability in human liver microsome assessed as parent compound remaining at 60 mins in presence of NADPH and UDPGA by HPLC-MS/MS analysis. It counts as ADME. As to conditions: liver microsomes, read-out: Stability.
In another series the target is Androgen receptor (Homo sapiens, UniProt P10275, W742C). Nature of the series: Antagonist activity at Androgen receptor W742C mutant in human HEK293T cells cotransfected with MMTV-luc and renilla plasmid incubated for 24 hrs by Dual luciferase assay. The format is cell-based.
The nature of series [10]: AUC (0 to t) in rat at 20 mg/kg, iv by LC-MS/MS analysis. It counts as ADME, organism-based. The following applies: in vivo.
Series [11] in a line: Half life in rat at 20 mg/kg, iv by LC-MS/MS analysis. The format is ADME, organism-based. As to conditions: in vivo.
The nature of series [12]: Microsomal stability in Beagle dog liver microsome assessed as half life measured upto 60 mins in presence of NADPH and UDPGA by HPLC-MS/MS analysis. The format is ADME, Canis lupus familiaris. As to conditions: liver microsomes.
Series [13] deals with T1, Mineralocorticoid receptor (Homo sapiens, UniProt P08235).
T1 sequence (P08235 whole entry): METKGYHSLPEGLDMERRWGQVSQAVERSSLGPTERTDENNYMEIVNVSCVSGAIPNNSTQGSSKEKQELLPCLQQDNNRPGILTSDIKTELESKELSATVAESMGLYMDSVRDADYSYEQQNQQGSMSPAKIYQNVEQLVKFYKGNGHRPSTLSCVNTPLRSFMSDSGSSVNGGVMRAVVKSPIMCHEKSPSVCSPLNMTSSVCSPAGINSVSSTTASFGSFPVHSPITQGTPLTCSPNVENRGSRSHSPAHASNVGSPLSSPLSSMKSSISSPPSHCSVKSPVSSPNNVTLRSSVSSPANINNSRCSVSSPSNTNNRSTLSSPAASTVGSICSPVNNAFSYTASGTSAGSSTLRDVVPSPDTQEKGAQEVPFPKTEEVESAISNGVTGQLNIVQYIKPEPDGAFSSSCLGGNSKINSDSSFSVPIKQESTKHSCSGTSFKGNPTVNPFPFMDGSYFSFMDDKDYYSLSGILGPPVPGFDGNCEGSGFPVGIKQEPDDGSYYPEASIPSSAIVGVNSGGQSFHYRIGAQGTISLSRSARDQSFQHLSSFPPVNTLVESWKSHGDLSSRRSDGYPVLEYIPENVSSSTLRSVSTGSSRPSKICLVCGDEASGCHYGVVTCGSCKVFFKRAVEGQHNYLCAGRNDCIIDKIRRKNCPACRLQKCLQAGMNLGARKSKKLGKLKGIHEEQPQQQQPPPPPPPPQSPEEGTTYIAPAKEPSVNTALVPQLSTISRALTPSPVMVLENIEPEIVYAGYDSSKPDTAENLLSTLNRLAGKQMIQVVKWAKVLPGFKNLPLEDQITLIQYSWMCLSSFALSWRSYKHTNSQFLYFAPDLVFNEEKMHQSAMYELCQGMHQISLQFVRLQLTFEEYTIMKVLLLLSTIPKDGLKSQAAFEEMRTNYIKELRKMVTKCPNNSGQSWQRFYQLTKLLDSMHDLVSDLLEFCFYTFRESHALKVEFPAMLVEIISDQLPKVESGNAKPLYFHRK
Nature of the series: Agonist activity at Mineralocorticoid receptor (unknown origin).

Series [14] in a line: Microsomal stability in monkey liver microsome assessed as intrinsic clearance measured upto 60 mins in presence of NADPH and UDPGA by HPLC-MS/MS analysis. As to conditions: rhesus monkey, liver microsomes, read-out: CLH. The format is ADME, Macaca mulatta.
Series [15] in a line: Observed apparent oral clearance in rat at 20 mg/kg, iv by LC-MS/MS analysis. It counts as ADME, organism-based. As to conditions: in vivo.
Series [16] in a line: Observed apparent volume of distribution during terminal phase in rat at 20 mg/kg, iv by LC-MS/MS analysis. It counts as ADME, organism-based. As to conditions: in vivo.
Series [17] is described as follows: Microsomal stability in mouse liver microsome assessed as parent compound remaining at 60 mins in presence of NADPH and UDPGA by HPLC-MS/MS analysis. The format is ADME. As to conditions: liver microsomes, read-out: Stability.
Series [18] is described as follows: Microsomal stability in human liver microsome assessed as intrinsic clearance measured upto 60 mins in presence of NADPH and UDPGA by HPLC-MS/MS analysis. The format is ADME. The following applies: liver microsomes, read-out: CLH.
The nature of series [19]: Microsomal stability in rat liver microsome assessed as intrinsic clearance measured upto 60 mins in presence of NADPH and UDPGA by HPLC-MS/MS analysis. The format is ADME. As to conditions: liver microsomes, read-out: CLH.
The nature of series [20]: Acute toxicity in po dosed male CB17.SCID mouse implanted with human LNCaP cells assessed as body weight loss measured within 14 days. It counts as organism-based. As to conditions: in vivo, time 14 day.
Series [21] can be described thus: Microsomal stability in Beagle dog liver microsome assessed as parent compound remaining at 60 mins in presence of NADPH and UDPGA by HPLC-MS/MS analysis. The format is ADME, Canis lupus familiaris. As to conditions: liver microsomes, read-out: Stability.

The term CL/F denotes clearance divided by bioavailability, as obtained after extravascular dosing. As a reminder, the half-life is the time needed for the level to fall by half in the phase considered. In general, AUC(0-inf) refers to the area under the concentration-time curve extrapolated to infinity. The term MRT last denotes the average time that molecules of a dose stay in the body. What is called IC50 is the concentration needed to halve the response being measured. One may read the AUC(0-t) as the area under the concentration-time curve up to a stated or last time point. What is called LD50 is the dose at which mortality reaches 50%.

Androgen receptor, sequence (P10275 whole entry W742C): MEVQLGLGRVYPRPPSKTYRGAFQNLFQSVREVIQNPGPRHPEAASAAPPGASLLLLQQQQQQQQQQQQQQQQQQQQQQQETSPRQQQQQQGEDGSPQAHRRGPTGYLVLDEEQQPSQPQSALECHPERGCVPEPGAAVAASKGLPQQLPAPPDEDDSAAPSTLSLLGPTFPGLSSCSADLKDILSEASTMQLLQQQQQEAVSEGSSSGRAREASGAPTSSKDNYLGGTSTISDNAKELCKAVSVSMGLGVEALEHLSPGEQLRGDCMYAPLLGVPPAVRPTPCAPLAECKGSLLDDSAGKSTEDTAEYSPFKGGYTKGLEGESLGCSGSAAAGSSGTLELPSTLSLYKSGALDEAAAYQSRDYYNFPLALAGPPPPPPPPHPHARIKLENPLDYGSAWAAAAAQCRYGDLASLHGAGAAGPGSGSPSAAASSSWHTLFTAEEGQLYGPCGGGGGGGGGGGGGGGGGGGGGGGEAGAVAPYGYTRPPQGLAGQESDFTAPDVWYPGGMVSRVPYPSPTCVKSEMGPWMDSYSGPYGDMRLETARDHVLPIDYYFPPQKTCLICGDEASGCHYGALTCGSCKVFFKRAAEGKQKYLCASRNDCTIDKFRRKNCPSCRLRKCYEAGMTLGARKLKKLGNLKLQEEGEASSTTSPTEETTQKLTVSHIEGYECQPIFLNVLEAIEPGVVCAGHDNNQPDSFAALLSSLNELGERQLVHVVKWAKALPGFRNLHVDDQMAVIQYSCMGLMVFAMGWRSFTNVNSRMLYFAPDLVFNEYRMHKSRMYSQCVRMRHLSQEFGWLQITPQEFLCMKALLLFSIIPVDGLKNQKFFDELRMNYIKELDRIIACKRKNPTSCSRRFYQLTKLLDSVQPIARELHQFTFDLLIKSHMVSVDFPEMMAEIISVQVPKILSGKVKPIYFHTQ

In the case of `Cc1oc(-c2cccc(C(F)(F)F)c2)cc1C(=O)Nc1nc(CN2CCOCC2)ns1`, the remaining at 1 h in series [1] was 22.5%; in series [7], 55.1%; in series [9], 29.7%; in [17], 32.3%; in [21], 12.6%. Further, the CL/F was 1.04 L/h/kg in series [2] and 0.61 L/h/kg in series [15]. The Activity entry (in series [3]; in the series on NIH3T3) was “Non-toxic” in each case. Besides, the half-life in [4] is 29.6 min; in [5], 38.5 min; in series [11] it was 470 min; in series [12], 22 min. The same compound showed an AUC(0-inf) in [6] of 22.1 µg·h/mL. The MRT last in series [8] came to 360 min. Moreover, the results for the IC50 (at Androgen receptor; in series [13]) were 0.24 µM and greater than 10 µM, respectively. Besides, in series [10], the AUC(0-t) is 32 µg·h/mL. The microsomal CLint in series [14] worked out at 7.3 µL/min/mg; in series [18], 18.7 µL/min/mg; in [19], 23.4 µL/min/mg. Further, the Vz/F_obs in series [16] was determined as 6.8 L/kg. Also, the median lethal dose (LD50) at 336 h in [20] is 1250 mg/kg.
